Results: ChEMBL document CHEMBL1201862, “PubChem BioAssay data set” (2004)
Values joined by “and” are separate entries in the source; they are usually repeats but may differ in a detail not shown here. Equal entries are not always repeated.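 1) Cells in 96-well plates. 2) Compound, 48 h, 5 concentrations. 3) Linear interpolation between surrounding doses. 4) Unreached endpoint = highest concentration. GI50: concentration for 50% inhibition of growth.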 Active and inactive are the calls of the source. Rule as the data show it: active = GI50 up to about 1.1 µM and inactive = higher.

Key:
Assay in all cases: NCI tumour cell line growth inhibition, 48 h
786-0 = system: 786-0
A498 = system: A498
A549 = system: A549
ACHN = system: ACHN
BT-549 = system: BT-549
CAKI-1 = system: CAKI-1
COLO 205 = system: COLO 205
DU-145 = system: DU-145
EKVX = system: EKVX
HCC 2998 = system: HCC 2998
HCT-116 = system: HCT-116
HCT-15 = system: HCT-15
HL-60 = system: HL-60
HOP-62 = system: HOP-62
HOP-92 = system: HOP-92
HT-29 = system: HT-29
Hs-578T = system: Hs-578T
IGROV-1 = system: IGROV-1
K562 = system: K562
KM12 = system: KM12
LOX IMVI = system: LOX IMVI
M14 = system: M14
MCF7 = system: MCF7
MDA-MB-231 = system: MDA-MB-231
MDA-MB-435 = system: MDA-MB-435
MDA-N = system: MDA-N
Malme-3M = system: Malme-3M
NCI-H226 = system: NCI-H226
NCI-H23 = system: NCI-H23
NCI-H460 = system: NCI-H460
NCI-H522 = system: NCI-H522
NCI/ADR-RES = system: NCI/ADR-RES
OVCAR-3 = system: OVCAR-3
OVCAR-4 = system: OVCAR-4
OVCAR-5 = system: OVCAR-5
OVCAR-8 = system: OVCAR-8
PC-3 = system: PC-3
RPMI-8226 = system: RPMI-8226
RXF 393 = system: RXF 393
SF-268 = system: SF-268
SF-295 = system: SF-295
SF-539 = system: SF-539
SK-MEL-28 = system: SK-MEL-28
SK-MEL-2 = system: SK-MEL-2
SK-MEL-5 = system: SK-MEL-5
SK-OV-3 = system: SK-OV-3
SN12C = system: SN12C
SNB-19 = system: SNB-19
SNB-75 = system: SNB-75
SR = system: SR
SW-620 = system: SW-620
T47D = system: T47D
TK-10 = system: TK-10
U-251 = system: U-251
UACC-257 = system: UACC-257
UACC-62 = system: UACC-62
UO-31 = system: UO-31
CCRF-CEM = system: CCRF-CEM

O=C(Oc1ccc(S(=O)(=O)F)cc1F)c1ccccc1Cl
GI50 (786-0): 33.7 µM (inactive) | GI50 (A498): 57.5 µM (inactive) | GI50 (A549): 35.5 µM (inactive) | GI50 (ACHN): 56 µM (inactive) | GI50 (BT-549): 39.2 µM (inactive) | GI50 (CAKI-1): 64.9 µM (inactive) | GI50 (COLO 205): 19.5 µM (inactive) | GI50 (DU-145): 28.1 µM (inactive) | GI50 (EKVX): 24.4 µM (inactive) | GI50 (HCC 2998): 42.6 µM (inactive) | GI50 (HCT-116): 47.2 µM (inactive) | GI50 (HCT-15): 37.5 µM | GI50 (HL-60): 35.6 µM (inactive) | GI50 (HOP-62): 34.8 µM (inactive) | GI50 (HOP-92): 20.2 µM (inactive) | GI50 (HT-29): 27 µM (inactive) | GI50 (Hs-578T): 25.2 µM (inactive) | GI50 (IGROV-1): 30.8 µM (inactive) | GI50 (K562): 42.1 µM (inactive) | GI50 (KM12): 30.4 µM (inactive) | GI50 (LOX IMVI): 31.8 µM (inactive) | GI50 (M14): 30.8 µM (inactive) | GI50 (MCF7): 29.5 µM (inactive) | GI50 (MDA-MB-231): 23.8 µM (inactive) | GI50 (MDA-MB-435): 29.6 µM (inactive) | GI50 (MDA-N): 33.3 µM (inactive) | GI50 (Malme-3M): 31.8 µM (inactive) | GI50 (NCI-H226): 31 µM (inactive) | GI50 (NCI-H23): 23.9 µM (inactive) | GI50 (NCI-H460): 27.3 µM (inactive) | GI50 (NCI-H522): 18.3 µM (inactive) | GI50 (NCI/ADR-RES): 35.2 µM (inactive) | GI50 (OVCAR-3): 29.9 µM (inactive) | GI50 (OVCAR-4): 30.1 µM (inactive) | GI50 (OVCAR-5): 30.9 µM (inactive) | GI50 (OVCAR-8): 30.8 µM (inactive) | GI50 (PC-3): 37.8 µM (inactive) | GI50 (RPMI-8226): 21.1 µM (inactive) | GI50 (RXF 393): 21.3 µM (inactive) | GI50 (SF-268): 32.5 µM (inactive) | GI50 (SF-295): 32.1 µM (inactive) | GI50 (SF-539): 22.5 µM (inactive) | GI50 (SK-MEL-28): 74 µM (inactive) | GI50 (SK-MEL-2): 54.5 µM (inactive) | GI50 (SK-MEL-5): 16.2 µM (inactive) | GI50 (SK-OV-3): 98.9 µM (inactive) | GI50 (SN12C): 31.5 µM (inactive) | GI50 (SNB-19): 30.5 µM (inactive) | GI50 (SNB-75): 24.9 µM (inactive) | GI50 (SR): 24.5 µM (inactive) | GI50 (SW-620): 44.3 µM (inactive) | GI50 (T47D): 31.5 µM (inactive) | GI50 (TK-10): 43.1 µM (inactive) | GI50 (U-251): 35.2 µM (inactive) | GI50 (UACC-257): 27.6 µM (inactive) | GI50 (UACC-62): 33.6 µM (inactive) | GI50 (UO-31): 18.5 µM (inactive)

Cc1ccc(/C=C2/N/C(=N\N=C/C(O)C(O)C(O)C(O)CO)NC2=O)cc1 (configuration not stated)
GI50 (786-0): > 100 µM (inactive) | GI50 (A498): > 100 µM (inactive) | GI50 (A549): > 100 µM (inactive) | GI50 (ACHN): > 100 µM (inactive) | GI50 (BT-549): > 100 µM (inactive) | GI50 (CAKI-1): > 100 µM (inactive) | GI50 (CCRF-CEM): 95.3 µM (inactive) | GI50 (COLO 205): > 100 µM (inactive) | GI50 (DU-145): > 100 µM (inactive) | GI50 (EKVX): > 100 µM (inactive) | GI50 (HCC 2998): > 100 µM (inactive) | GI50 (HCT-116): > 100 µM (inactive) | GI50 (HCT-15): > 100 µM and 69.8 µM | GI50 (HL-60): > 100 µM (inactive) | GI50 (HOP-62): > 100 µM (inactive) | GI50 (HOP-92): > 100 µM (inactive) | GI50 (HT-29): > 100 µM (inactive) | GI50 (Hs-578T): > 100 µM (inactive) | GI50 (IGROV-1): > 100 µM (inactive) | GI50 (KM12): > 100 µM (inactive) | GI50 (LOX IMVI): > 100 µM (inactive) | GI50 (M14): > 100 µM (inactive) | GI50 (MCF7): > 100 µM (inactive) | GI50 (MDA-MB-231): > 100 µM (inactive) | GI50 (MDA-MB-435): > 100 µM (inactive) | GI50 (MDA-N): > 100 µM (inactive) | GI50 (Malme-3M): > 100 µM (inactive) | GI50 (NCI-H226): > 100 µM (inactive) | GI50 (NCI-H23): > 100 µM (inactive) | GI50 (NCI-H460): > 100 µM (inactive) | GI50 (NCI-H522): > 100 µM (inactive) | GI50 (NCI/ADR-RES): > 100 µM (inactive) | GI50 (OVCAR-3): > 100 µM (inactive) | GI50 (OVCAR-5): > 100 µM (inactive) | GI50 (OVCAR-8): > 100 µM (inactive) | GI50 (PC-3): > 100 µM (inactive) | GI50 (RPMI-8226): > 100 µM (inactive) | GI50 (RXF 393): > 100 µM (inactive) | GI50 (SF-268): > 100 µM (inactive) | GI50 (SF-295): > 100 µM (inactive) | GI50 (SF-539): > 100 µM (inactive) | GI50 (SK-MEL-28): > 100 µM (inactive) | GI50 (SK-MEL-2): > 100 µM (inactive) | GI50 (SK-MEL-5): > 100 µM (inactive) | GI50 (SK-OV-3): > 100 µM (inactive) | GI50 (SN12C): > 100 µM (inactive) | GI50 (SNB-19): > 100 µM (inactive) | GI50 (SNB-75): > 100 µM (inactive) | GI50 (SR): > 100 µM (inactive) | GI50 (SW-620): > 100 µM (inactive) | GI50 (T47D): > 100 µM (inactive) and 99.1 µM (inactive) | GI50 (TK-10): > 100 µM (inactive) | GI50 (U-251): > 100 µM (inactive) | GI50 (UACC-257): > 100 µM (inactive) | GI50 (UO-31): > 100 µM (inactive)
